Key:
[1] = CEST MRI of drugs in PBS solution (in vitro phantom); type: physicochemical; conditions: for offset of CEST contrast corresponding to NH2 / offset of CEST contrast corresponding to OH: PBS solution, 20 mM, pH 7.4, 37° C., B1=3.6 μT, 3 s
Description: This would of course correspond only to an mM or μM change for the drug and would not be detectable on the large MRI signal of 55 M water molecules (110 M protons). However, for every saturated proton leaving from the solute to water, an intact proton relocates from water to the solute, a process so-called chemical or proton exchange, and subsequently gets saturated again, which will be transferred to the water again in the next exchange. If the exchange rate is fast enough, this continuous process can lead to great signal amplification of the NMR signal carried by the agent, even up to thousands of times (depending on the exchange rate). This can then cause a several percentage decrease in the water signal, allowing imaging of the low-concentration agent with the sensitivity of the water signal. The percentage of water signal decrease, or CEST contrast, is traditionally described by magnetization transfer ratio asymmetry (MTRasym) defined by MTRasym=(S^−Δω−S^+Δω)/S0, where […] are the MRI signal with RF irradiation at particular offsets +Δω and −Δω respectively, and So is that acquired without RF saturation (element (d) of FIG. 1). Because having detectable exchangeable protons (at an appropriate rate at an adequate concentration) is a requirement for generating CEST MRI signal, it thus opens the possibility to detect natural biocompatible molecules by their CEST signal, potentially improving the clinical translatability.
Elements (a)-(d) of FIG. 1 show an illustration of CEST contrast (taken from reference [^1] with permission). […] However, this process is repeated continuously, leading to effect amplification of magnitude depending on the exchange rate (ksw). The CEST contrast can be quantified by a NMR spectrum element (b), a z spectrum in element (c) of frequency dependence of normalized saturated water signal Ssat/S0, with S0 the non-saturated signal) or, an MTRasym plot in element (d). Elements (e)-(f) show CEST detection of drugs through their carried exchangeable protons on NH2 (blue) and OH (red) as exemplified by araC (left) and Gem (right) in PBS solution (20 mM, pH 7.4) at 37° C. using a standard CEST MRI method (RF pulse field strength (B1)=3.6 μT and duration =3 s). […] Elements (f)-(g) of FIG. 1 show the CEST contrast of them as quantified by z-spectra and MTRasym plots respectively, showing strong CEST contrast at ˜1 and ˜2 ppm corresponding to OH and NH2 respectively, which appear partially overlapped at pH 7.4 but can be resolved at low saturation power.
Other drugs, including prodrugs and drug modulators, as well as the drug carriers, are intended to be included within the general scope of this invention. Many of them have exchangeable protons such as OH, NH and NH2 (FIG. 1). Thus, in one embodiment, the water exchangeable proton corresponds to at least one of an OH, NH2 or NH group. The water-exchangeable proton can include at least one of an OH, NH2 or NH group. Other antitumor categories and the biochemical drug modulators (a non-toxic agent that can enhance the effect of drugs when used together, but has no effect when used alone) as listed in Table 1 are also intended to be within the scope of the current invention.

[2] = in vivo; cited from earlier work
[3] = single dose of 800 mg/kg (i.p.); cited from earlier work
[4] = patients, repetitive infusions, single dose 3 g/m^2 over three hours, up to eight doses; cited from earlier work

| SMILES | offset of CEST contrast corresponding to NH2 [1] [ppm] | offset of CEST contrast corresponding to OH [1] [ppm] | offset at which the maximum CEST signal could be detected ([1]; at low pH) [ppm] | maximum tolerated dose (MTD) [2] [m^g/m2] | accumulation of gemcitabine in tumor [3] | cerebellar toxicity [4] |
| --- | --- | --- | --- | --- | --- | --- |
| Nc1ccn([C@@H]2O[C@H](CO)[C@@H](O)C2(F)F)c(=O)n1 [gemcitabine, Gemcitabine] | ~2 | ~1 | 3.2 | 2200 | up to several mM | – |
| Nc1ccn([C@@H]2O[C@H](CO)[C@@H](O)[C@@H]2O)c(=O)n1 [araC, Cytarabine] | ~2 | ~1 | – | – | – | no noticeable cerebellar toxicity |
